Experimental data taken from patent publication US20030198941A1, “Method for making an HIV vaccine” (priority 2000, published 2003).
Where “and” joins values, the source holds several entries; their conditions need not be identical. Equal entries are not always repeated. Where two headings read alike, the source gives them in different places.

Key:
[1] = tested on: epitope-specific CD8+ PBMC of SIV-infected animals; format: cell-based, rhesus macaque; details: for avidity of CTL response: PBMC specific for late escaping epitopes; for EC50: read-out: ½maximal IFN-γ release (peptide concentration)
[2] = tested on: Tat SL8- and Gag CM9-specific CTL lines; assay: 51Cr-release cytotoxicity assay with peptide dilutions, in vitro CTL lines; format: cell-based, rhesus macaque; details: CTL lines generated with high (1 μM) and low (1 nM) peptide; read-out: ½maximal specific lysis (peptide concentration)
[3] = tested on: epitope-specific CTL lines; assay: Intracellular IFN-γ staining (ICS) with peptide dilutions, in vitro CTL lines; format: cell-based, rhesus macaque; details: for avidity of CTL response: CTL lines against acute escaped epitopes
[4] = target: rhesus MHC class I molecule Mamu-A*01 (rhesus macaque); assay: competition with 125I-labeled […] for Mamu-A*01; (1.0-relative binding average)x100
[5] = target: rhesus MHC class I molecule Mamu-A*01 (rhesus macaque); assay: competition with 125I-labeled […] for Mamu-A*01; relative to […]
[6] = target: rhesus MHC class I molecule Mamu-A*01 (rhesus macaque)
[7] = tested on: rhesus MHC class I molecule Mamu-A*01; assay: Mamu-A*01 peptide binding assay (inhibition of binding of a radiolabeled probe peptide); set-up: species or system rhesus macaque; details: for % Binding reduction: (1.0-relative binding average)x100, versus index peptide STPESANL; for IC50: soluble Mamu-A*01; for Relative Binding Average: relative to the binding affinity of Tat28-35 STPESANL to Mamu-A*01
Description: Quantitative assays for the binding of peptides to soluble Mamu-A*01 molecules on the basis of the inhibition of binding of a radiolabeled standard probe peptide to detergent-solubilized MHC molecules were performed as previously described (Allen, T. M., et al., J. Immunol. 160:6062-6071, 1998). A position 1 C→A analog of the SIV gag 181-190 peptide ([…]) was utilized as the radiolabeled probe. In the case of competitive assays, the concentration of peptide yielding 50% inhibition of the binding of the radiolabeled probe peptide was calculated. Peptides were initially tested at one or two high doses. The IC50 of peptides yielding positive inhibition were then determined in subsequent experiments, in which two to six further dilutions were tested, as necessary. Since under the conditions to be utilized, where [label]<[MHC] and IC50 ≧[MHC], the measured IC50 values are reasonable approximations of the true Kd values. Each competitor peptide was tested in two to four completely independent experiments. As a positive control, in each experiment the unlabeled version of the radiolabeled probe was tested and its IC50 measured.

[8] = tested on: CTL lines stimulated with the SL8 index peptide; assay: CTL analyses of SL8-stimulated T-cell lines against index and variant peptides; format: cell-based, rhesus macaque; details: E:T ratio 25:1, three peptide dilutions
Description: FIG. 3 is a set of six graphs describing CTL analyses of CD8-positive T-lymphocyte cell lines stimulated with SL8 peptide. Cell lines were stimulated with the index peptide (SL8) and autologous B-LCL. After 2 weeks in culture, these T-cell lines were used in CTL analyses at an Effector:Target (E:T) ratio of 25:1 with the index peptide and the variants. Three different dilutions of peptides were tested.
CTL cultures were established from peripheral blood samples of SIV-infected rhesus macaques drawn in EDTA tubes and CTL were cultured and assayed as previously described (Evans, D. T., et al., supra, 1999).

[9] = competition against 125-labeled peptide […]
[10] = competition against 125-labeled peptide ATPYDINQML

ARRHRILDIYL [Nef_AL11] was tested, and the “avidity of CTL response” value ([1]; ICS) was “low avidity”.

For CTPYDINQM [Gag CM9], the EC50 [2] was 1 to 10 nM and 1 to 40 nM and the EC50 [1] was 8 nM.

GDYKLVEI [Env_GI8] was tested, and the “avidity of CTL response” value ([1]; ICS) was “low avidity”.

With GLDKGLSSL [GL9] the “avidity of CTL response” value [3] was “high avidity”.

KRQQELLRL [Env_KL9] was tested, and the “avidity of CTL response” value ([1]; ICS) was “low avidity”.

STPESANL showed an EC50 [2] of 0.05 to 0.1 nM, an EC50 ([1]; epitope-specific PBMC, ICS) of 0.11 nM and an EC50 ([3]; CTL lines generated in vitro, read-out: ½maximal IFN-γ production (peptide concentration)) of under 0.5 nM.

“Tat28-35 variant ------P (proline at P8) (peptide)” showed a % Binding reduction [4] of over 99% and a Relative Binding Average [5] of 0.009.

“Tat28-35 variant ------Q (glutamine at P8) (peptide)” was tested, and the % Binding reduction [4] was over 99% and the Relative Binding Average [5] was 0.003.

For “Tat28-35 variant ------R (arginine at P8) (peptide)”, the % Binding reduction [4] was over 99% and the Relative Binding Average [5] was 0.003.

“Tat28-35 variant ----L-- (leucine at P5) (peptide)” showed a % Binding reduction [4] of 85% and a Relative Binding Average [5] of 0.155.

In the case of “Tat28-35 variant -I---- (isoleucine at P2) (peptide)”, the % Binding reduction [4] is reported as over 99% and the Relative Binding Average [5] is reported as 0.009.

“Tat28-35 variant P------ (proline at P1) (peptide)” showed a % Binding reduction [6] of 67% and a Relative Binding Average [5] of 0.43.

With YTSGPGIRY [YY9] the “avidity of CTL response” value [3] was “high avidity”.

For “variant of the Tat STPESANL epitope with arginine at P8 [------R]”, the “% Binding reduction” value [7] was over 99%, the IC50 [7, 9] was 15100 nM and the “Relative Binding Average” value [7] was 0.003.

In the case of “variant of the Tat STPESANL epitope with glutamine at P8 [------Q]”, the “% Binding reduction” value [7] is reported as over 99%, the IC50 [7, 10] is reported as 13200 nM and the “Relative Binding Average” value [7] is reported as 0.003.

With “variant of the Tat STPESANL epitope with isoleucine at P2 [-I----]” the “% Binding reduction” value [7] was over 99%, the IC50 [7, 9] was 4610 nM and the “Relative Binding Average” value [7] was 0.009.

With “variant of the Tat STPESANL epitope with leucine at P5 [----L--]” the “% Binding reduction” value [7] was 85%, the “% Binding reduction” value ([7]; listed as leucine at P5) was over 80% and the “% Binding reduction” value ([7]; listed as leucine substitution at P5) was “more than 80%”. The IC50 [7, 10] was 281 nM, the “Relative Binding Average” value [7] was 0.155 and the “CTL recognition / sensitizing targets for CTL lysis” value [8] was “least efficient at sensitizing targets for CTL lysis”.

In the case of “variant of the Tat STPESANL epitope with proline at P1 [P------]”, the “% Binding reduction” value [7] is reported as 67%, the “% Binding reduction” value ([7]; listed as proline at P1) is reported as “more than 50%” and the “% Binding reduction” value ([7]; listed as proline substitution at P1) is reported as “more than 50%”. The IC50 [7, 9] was 100 nM and the “Relative Binding Average” value [7] was 0.43.

In the case of “variant of the Tat STPESANL epitope with proline at P8 [------P]”, the “% Binding reduction” value [7] is reported as over 99%, the IC50 [7, 9] is reported as 4570 nM and the “Relative Binding Average” value [7] is reported as 0.009.
